Data from patent US8609650B2, “Bridged bicyclic aryl and bridged bicyclic heteroaryl substituted triazoles useful as Axl inhibitors” (Rigel Pharmaceuticals, Inc., priority 2006, dated 2013).
pIC50: −log10 of the molar value.

target: T1, Axl (Homo sapiens, UniProt P30530); assay: Phospho-Akt In-Cell Western Assay (ability to inhibit Axl activity); assay type: cell-based; conditions: Hela cells, stimulated by Axl-antibody cross-linking, phospho-Akt chemiluminescence normalized to relative cell number
T1 construct: endogenous in cells; host or cells: HeLa cells
T1 sequence (P30530 26-894): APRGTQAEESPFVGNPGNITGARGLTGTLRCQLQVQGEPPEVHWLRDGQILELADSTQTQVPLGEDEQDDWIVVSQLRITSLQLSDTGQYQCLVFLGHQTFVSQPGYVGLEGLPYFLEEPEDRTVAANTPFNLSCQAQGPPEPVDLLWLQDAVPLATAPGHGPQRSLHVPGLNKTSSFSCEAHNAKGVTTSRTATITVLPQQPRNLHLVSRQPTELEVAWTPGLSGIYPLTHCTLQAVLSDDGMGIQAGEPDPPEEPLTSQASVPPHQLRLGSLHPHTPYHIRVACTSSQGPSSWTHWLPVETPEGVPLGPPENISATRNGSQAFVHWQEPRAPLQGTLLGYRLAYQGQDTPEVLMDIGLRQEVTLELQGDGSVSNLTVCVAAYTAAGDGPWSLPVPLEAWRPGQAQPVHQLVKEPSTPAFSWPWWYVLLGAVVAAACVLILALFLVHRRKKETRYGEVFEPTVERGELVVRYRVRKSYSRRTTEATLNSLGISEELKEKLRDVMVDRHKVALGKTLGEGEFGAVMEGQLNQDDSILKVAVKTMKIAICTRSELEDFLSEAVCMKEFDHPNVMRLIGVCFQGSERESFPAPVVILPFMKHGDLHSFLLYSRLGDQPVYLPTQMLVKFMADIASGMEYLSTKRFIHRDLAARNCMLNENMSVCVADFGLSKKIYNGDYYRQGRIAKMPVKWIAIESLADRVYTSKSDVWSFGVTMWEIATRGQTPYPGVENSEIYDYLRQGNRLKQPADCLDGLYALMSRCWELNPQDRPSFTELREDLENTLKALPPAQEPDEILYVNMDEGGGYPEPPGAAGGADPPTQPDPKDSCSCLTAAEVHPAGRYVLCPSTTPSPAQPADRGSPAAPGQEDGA
Outline: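 HeLa cells starved 24 h in 0.5% FCS with Axl/Fc 500 ng/mL, pre-treated 1 h at 37° C with compound, then stimulated 5 min by anti-Axl antibody cross-linking. Fixed cells probed for phospho-Akt with HRP secondary; chemiluminescence read.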

`CCOC(=O)C1CCN(C2CCN(c3ccc(Nc4nc(N)n(-c5cc(-c6ccccc6)c6c(n5)C5CCN6CC5)n4)cc3F)CC2)CC1` [Compound 58, (1,4-ethano-8-phenyl-1,2,3,4-tetrahydro-1,5-naphthyridin-6-yl)-N^3-(3-fluoro-4-(4-(4-ethyloxycarbonylpiperidin-1-yl)piperidin-1-yl)phenyl)-1H-1,2,4-triazole-3,5-diamine] and `Nc1nc(Nc2ccc(N3CCC(N4CCC(C(=O)O)CC4)CC3)c(F)c2)nn1-c1cc(-c2ccccc2)c2c(n1)C1CCN2CC1` [Compound 59, 1-(1,4-ethano-8-phenyl-1,2,3,4-tetrahydro-1,5-naphthyridin-6-yl)-N^3-(3-fluoro-4-(4-(4-carboxypiperidin-1-yl)piperidin-1-yl)phenyl)-1H-1,2,4-triazole-3,5-diamine] cannot be ordered by pIC50: > 6.00 for the first, > 6.00 for the second.

`COC(=O)[C@@H]1CCCN1C1CCN(c2ccc(Nc3nc(N)n(-c4cc(-c5ccccc5)c5c(n4)C4CCN5CC4)n3)cc2F)CC1` [Compound 60, 1-(1,4-ethano-8-phenyl-1,2,3,4-tetrahydro-1,5-naphthyridin-6-yl)-N^3-(3-fluoro-4-(4-((2S)-2-methyloxycarbonylpyrrolidin-1-yl)piperidin-1-yl)phenyl)-1H-1,2,4-triazole-3,5-diamine] and `Nc1nc(Nc2ccc(N3CCC(N4CCC[C@H]4C(=O)O)CC3)c(F)c2)nn1-c1cc(-c2ccccc2)c2c(n1)C1CCN2CC1` [Compound 61, 1-(1,4-ethano-8-phenyl-1,2,3,4-tetrahydro-1,5-naphthyridin-6-yl)-N^3-(3-fluoro-4-(4-((2S)-2-carboxypyrrolidin-1-yl)piperidin-1-yl)phenyl)-1H-1,2,4-triazole-3,5-diamine] cannot be ordered by pIC50: > 6.00 for the first, > 6.00 for the second.

`COc1ccc(-c2cc(-n3nc(Nc4ccc(N5CCC(N6CCCC6)CC5)c(F)c4)nc3N)nc3c2N2CCC3CC2)cc1` [Compound 62, 1-(1,4-ethano-8-(4-methoxyphenyl)-1,2,3,4-tetrahydro-1,5-naphthyridin-6-yl)-N^3-(3-fluoro-4-(4-(pyrrolidin-1-yl)piperidin-1-yl)phenyl)-1H-1,2,4-triazole-3,5-diamine] and `Nc1nc(Nc2ccc(N3CCC(N4CCCC4)CC3)c(F)c2)nn1-c1cc(-c2ccsc2)c2c(n1)C1CCN2CC1` [Compound 64, 1-(1,4-ethano-8-thiophen-3-yl-1,2,3,4-tetrahydro-1,5-naphthyridin-6-yl)-N^3-(3-fluoro-4-(4-(pyrrolidin-1-yl)piperidin-1-yl)phenyl)-1H-1,2,4-triazole-3,5-diamine] cannot be ordered by pIC50: > 6.00 for the first, > 6.00 for the second.

`Nc1nc(Nc2ccc(N3CCC(N4CCCC4)CC3)c(F)c2)nn1-c1cc(-c2cccnc2)c2c(n1)C1CCN2CC1` [Compound 63, 1-(1,4-ethano-8-pyridin-3-yl-1,2,3,4-tetrahydro-1,5-naphthyridin-6-yl)-N^3-(3-fluoro-4-(4-(pyrrolidin-1-yl)piperidin-1-yl)phenyl)-1H-1,2,4-triazole-3,5-diamine] and `Cc1cc(Nc2nc(N)n(-c3cc(-c4ccccc4)c4c(n3)C3CCN4CC3)n2)ccc1N1CCC(N2CCCC2)CC1` [Compound 68, 1-(1,4-ethano-8-phenyl-1,2,3,4-tetrahydro-1,5-naphthyridin-6-yl)-N^3-(3-methyl-4-(4-(pyrrolidin-1-yl)piperidin-1-yl)phenyl)-1H-1,2,4-triazole-3,5-diamine] cannot be ordered by pIC50: > 6.00 for the first, > 6.00 for the second.

`COC(=O)[C@@H]1CN(c2ccc(Nc3nc(N)n(-c4cc(-c5ccccc5)c5c(n4)C4CCN5CC4)n3)cc2F)CCN1CC1CC1` [Compound 65, 1-(1,4-ethano-8-phenyl-1,2,3,4-tetrahydro-1,5-naphthyridin-6-yl)-N^3-(3-fluoro-4-((3S)-3-methyloxycarbonyl-4-cyclopropylmethylpiperazin-1-yl)phenyl)-1H-1,2,4-triazole-3,5-diamine] and `Nc1nc(Nc2ccc(N3CCN(CC4CC4)[C@H](C(=O)O)C3)c(F)c2)nn1-c1cc(-c2ccccc2)c2c(n1)C1CCN2CC1` [Compound 66, 1-(1,4-ethano-8-phenyl-1,2,3,4-tetrahydro-1,5-naphthyridin-6-yl)-N^3-(3-fluoro-4-((3S)-3-carboxy-4-cyclopropylmethylpiperazin-1-yl)phenyl)-1H-1,2,4-triazole-3,5-diamine] cannot be ordered by pIC50: > 6.00 for the first, > 6.00 for the second.

`CN1CCC(c2ccc(Nc3nc(N)n(-c4cc(-c5ccccc5)c5c(n4)C4CCN5CC4)n3)cc2)CC1` [Compound 67, 1-(1,4-ethano-8-phenyl-1,2,3,4-tetrahydro-1,5-naphthyridin-6-yl)-N^3-(4-(1-methylpiperidin-4-yl)phenyl)-1H-1,2,4-triazole-3,5-diamine] and `Nc1nc(Nc2ccc3c(c2)CCC(N2CCCC2)CC3)nn1-c1cc(-c2ccccc2)c2c(n1)C1CCN2CC1` (stereo not drawn) [Compound 72, 1-(1,4-ethano-8-phenyl-1,2,3,4-tetrahydro-1,5-naphthyridin-6-yl)-N^3-(7-pyrrolidin-1-yl-6,7,8,9-tetrahydro-5H-benzo[7]annulene-3-yl)-1H-1,2,4-triazole-3,5-diamine] cannot be ordered by pIC50: > 6.00 for the first, > 6.00 for the second.

First: Nc1nc(Nc2ccc3c(c2)CCC(=O)CC3)nn1-c1cc(-c2ccccc2)c2c(n1)C1CCN2CC1 [Compound 69, 1-(1,4-ethano-8-phenyl-1,2,3,4-tetrahydro-1,5-naphthyridin-6-yl)-N^3-(7-oxo-6,7,8,9-tetrahydro-5H-benzo[7]annulene-3-yl)-1H-1,2,4-triazole-3,5-diamine]
Second: Nc1nc(Nc2ccc3c(c2)CCC(NC2CCCC2)CC3)nn1-c1cc(-c2ccccc2)c2c(n1)C1CCN2CC1 (stereo not drawn) [Compound 70, 1-(1,4-ethano-8-phenyl-1,2,3,4-tetrahydro-1,5-naphthyridin-6-yl)-N^3-(7-cyclopentylamino-6,7,8,9-tetrahydro-5H-benzo[7]annulene-3-yl)-1H-1,2,4-triazole-3,5-diamine]
The pIC50 of the first is lower: 5.00 to 6.00 for the first, > 6.00 for the second. The second is the more potent here.

`Nc1nc(Nc2ccc3c(c2)CCC(N2CCC(N4CCCC4)CC2)CC3)nn1-c1cc(-c2ccccc2)c2c(n1)C1CCN2CC1` (stereo not drawn) [Compound 71, 1-(1,4-ethano-8-phenyl-1,2,3,4-tetrahydro-1,5-naphthyridin-6-yl)-N^3-(7-(4-pyrrolidin-1-ylpiperidin-1-yl)-6,7,8,9-tetrahydro-5H-benzo[7]annulene-3-yl)-1H-1,2,4-triazole-3,5-diamine] was tested, and the pIC50 was > 6.00.
